Laboratory results from paper PMC11024869, “The activity of antimicrobial peptoids against multidrug-resistant ocular pathogens” (Contact lens & anterior eye : the journal of the British …, 2024).
Converted amounts (≈) assume the structure as drawn. Non-standard residues stand in square brackets, D forms with d. Residues, ends and D or L forms follow the SMILES beside them. Nspe = C[C@H](NCC(=O)O)c1ccccc1; NDecylGly = CCCCCCCCCCNCC(=O)O; Nlys = NCCCCNCC(=O)O

What was measured:
Type in all cases: cell-based
[1] = system: Pseudomonas aeruginosa PAO1; conditions: PAO1, MHB
Description: (§3) The S. pneumoniae strains used were SP04, SP06 and SP07 [46] and Streptococcus gallolyticus SV06 (all isolated from eyes of contact lens wearers during adverse events); P. aeruginosa PAO1 (which was originally isolated from a wound, and is an invasive strain containing the gene exoS) as well as isolates from microbial keratitis, PA 235 (invasive strain containing exoS), PA216 (a cytotoxic strain containing exoU), PA219 (cytotoxic strain containing exoU), PA 233 (cytotoxic strain containing exoU), with various susceptibilities to antibiotics were also used [14]. C. albicans ATCC 10231, a yeast, isolated from case of a human bronchomycosis, was also evaluated.
(§4) The peptoids’ minimum inhibitory and bactericidal concentrations (MIC and MBC) were determined using micro broth dilution methods as previously described with slight modifications, [26, 39, 49, 50], and without using acetic acid and bovine serum albumin [39]. Briefly, bacteria or yeast were suspended in Muller Hinton broth (MHB, Oxoid, Thermo Fisher Scientific, Thebarton, SA, Australia) at 0.1 OD660nm, which was equivalent to 1x10^8 colony forming units (CFU) mL^−1. This suspension was further diluted to achieve 5x10^6 CFU mL^−1. The peptoids were diluted in MHB from 250 to 0.24 μg mL^−1 in 96-well polystyrene microplates (COSTAR, Corning Incorporated, New York, NY, USA) [39]. […] This was followed by addition of 100 μL of each microbial suspensions. Wells with only bacteria or the yeast were treated as a negative control, and wells with only MHB medium were treated as a blank. The plates were incubated at 37 °C with shaking at 120 rpm for 24 h. After incubation, the media in each well was serially diluted in phosphate buffered solution and then inoculated onto tryptone soya agar (Oxoid) plates for bacteria, or Sabouraud’s dextrose agar for the yeast, and incubated at 37 °C for 18 hrs. Post incubation, the number of CFUs on the agar plates was counted.

[2] = system: Pseudomonas aeruginosa PA216; conditions: PA216, MHB, 24 h 37 °C
Description: as §3, §4

[3] = system: Pseudomonas aeruginosa PA219; conditions: PA219, MHB, 24 h 37 °C
Description: as §3, §4

[4] = system: Pseudomonas aeruginosa PA233; conditions: PA233, MHB, 24 h 37 °C
Description: All S. aureus strains used were isolated from cases of microbial keratitis (Table 1) with various susceptibilities to antibiotics. The S. pneumoniae strains used were SP04, SP06 and SP07 [46] and Streptococcus gallolyticus SV06 (all isolated from eyes of contact lens wearers during adverse events); P. aeruginosa PAO1 (which was originally isolated from a wound, and is an invasive strain containing the gene exoS) as well as isolates from microbial keratitis, PA 235 (invasive strain containing exoS), PA216 (a cytotoxic strain containing exoU), PA219 (cytotoxic strain containing exoU), PA 233 (cytotoxic strain containing exoU), with various susceptibilities to antibiotics were also used. C. albicans ATCC 10231, a yeast, isolated from case of a human bronchomycosis, was also evaluated.
The peptoids’ minimum inhibitory and bactericidal concentrations (MIC and MBC) were determined using micro broth dilution methods as previously described with slight modifications, [26, 39, 49, 50], and without using acetic acid and bovine serum albumin [39]. Briefly, bacteria or yeast were suspended in Muller Hinton broth (MHB, Oxoid, Thermo Fisher Scientific, Thebarton, SA, Australia) at 0.1 OD660nm, which was equivalent to 1x10^8 colony forming units (CFU) mL^−1. This suspension was further diluted to achieve 5x10^6 CFU mL^−1. The peptoids were diluted in MHB from 250 to 0.24 μg mL^−1 in 96-well polystyrene microplates (COSTAR, Corning Incorporated, New York, NY, USA). This range was selected to cover the range of MIC values previously reported for ESKAPE pathogens. This was followed by addition of 100 μL of each microbial suspensions. Wells with only bacteria or the yeast were treated as a negative control, and wells with only MHB medium were treated as a blank. The plates were incubated at 37 °C with shaking at 120 rpm for 24 h. After incubation, the media in each well was serially diluted in phosphate buffered solution and then inoculated onto tryptone soya agar (Oxoid) plates for bacteria, or Sabouraud’s dextrose agar for the yeast, and incubated at 37 °C for 18 hrs. Post incubation, the number of CFUs on the agar plates was counted.

[5] = system: Pseudomonas aeruginosa PA235; conditions: PA235, MHB, 24 h 37 °C
Description: as §3, §4

[6] = system: Staphylococcus aureus SA34; conditions: SA34, MHB, 24 h 37 °C
Description: as §3, §4

[7] = system: Staphylococcus aureus SA65; conditions: SA65, MHB, 24 h 37 °C
Description: as §3, §4

[8] = system: Staphylococcus aureus SA113; conditions: SA113, MHB, 24 h 37 °C
Description: as §3, §4

[9] = system: Staphylococcus aureus SA114; conditions: SA114, MHB, 24 h 37 °C
Description: as §3, §4

[10] = system: Staphylococcus aureus SA117; conditions: SA117, MHB, 24 h 37 °C
Description: as §3, §4

[11] = system: Streptococcus pneumoniae SP04; conditions: SP04, MHB, 24 h 37 °C
Description: as §3, §4

[12] = system: Streptococcus pneumoniae SP06; conditions: SP06, MHB, 24 h 37 °C
Description: as §3, §4

[13] = system: Streptococcus pneumoniae SP07; conditions: SP07, MHB, 24 h 37 °C
Description: as §3, §4

[14] = system: Streptococcus gallolyticus SG04; conditions: SG04, MHB, 24 h 37 °C
Description: as §3, §4

[15] = system: viridans group streptococcus SV06; conditions: SV06, MHB, 24 h 37 °C
Description: as §3, §4

[16] = system: Candida albicans ATCC 10231; assay: MIC/MBC (fungicidal) micro broth dilution; conditions: ATCC 10231 (yeast), MHB, 24 h 37 °C
Description: as §3, §4

[17] = system: horse erythrocytes; assay: In vitro assay for hemolysis, horse blood
Procedure: (§1) Hemolysis caused by the peptoids was measured using 18 to 20 mL of a horse or human blood collected in EDTA-coated tubes which has been centrifuged at 500×g for 5 min. The supernatant was discarded and the pellet containing the cells were resuspended in PBS to a final volume of 20 mL. This step was repeated five times. After the final wash, the pellet was resuspended in PBS at the ratio of 1:10 (1 mL red blood cell: 9 mL PBS) to yield a final red blood cell (RBC) concentration of approximately 5 × 10^8 cells mL^−1. The concentration of RBCs was confirmed using a hemocytometer. The peptoids (stock concentration 2 mM) were diluted sequentially (two-fold dilutions) in PBS to final concentrations of […]. All the dilutions were subsequently mixed with the RBC suspension at the ratio of 1:1. MilliQ water was used as a positive control and PBS was used as a negative control in this assay. All samples were incubated at 37 °C for 3 h. Following incubation, the tubes were centrifuged at 500 x g for five mins, the supernatants were collected, transferred to wells in a 96 well plate and their optical density was measured at 540 nm. The percentage of hemolysis was calculated by dividing the absorbance of the test sample by the absorbance of the positive control, and multiplying by 100. Data are presented as the hemolysis caused by each dilution of peptoid, and as the concentration of peptoid that caused 10 % or 50 % lysis of red blood cells.
(§2) The geometric mean is the nth root of the multiplied numbers, where n is the total number of data values. A similar formula was used to calculate the selectivity ratio, but by using the concentration of peptoid that caused 10 % hemolysis.

[18] = system: human erythrocytes; assay: In vitro assay for hemolysis, human blood
Procedure: as §1, §2

CCCCCCCCCCNCC(=O)N(CCCCN)CC(=O)N(CC(=O)N(CC(=O)N(CCCCN)CC(=O)N(CC(=O)N(CC(=O)N(CCCCN)CC(N)=O)[C@@H](C)c1ccccc1)[C@@H](C)c1ccccc1)[C@@H](C)c1ccccc1)[C@@H](C)c1ccccc1 [TM18] (H-[NDecylGly][Nlys][Nspe][Nspe][Nlys][Nspe][Nspe][Nlys]-NH2)
MIC ([1]; 5x10^6 CFU mL^−1, 24 h 37 °C, ≥90 % reduction in CFUs): 15 µg/mL (≈ 12.1 µM) | MBC ([1]; 24 h 37 °C, ≥99.99 % reduction in CFUs): 31 µg/mL (≈ 24.9 µM) | MIC ([2]; ≥90 % reduction in CFUs): 15(12)/15(12) μg mL^−1 | MBC ([2]; ≥99.99 % reduction in CFUs): 15(12)/15(12) μg mL^−1 | MIC ([3]; ≥90 % reduction in CFUs): 15 µg/mL (≈ 12.1 µM) | MBC ([3]; ≥99.99 % reduction in CFUs): 31 µg/mL (≈ 24.9 µM) | MIC ([4]; ≥90 % reduction in CFUs): 15 µg/mL (≈ 12.1 µM) | MBC ([4]; ≥99.99 % reduction in CFUs): 31 µg/mL (≈ 24.9 µM) | MIC ([5]; ≥90 % reduction in CFUs): 7.8 µg/mL (≈ 6.27 µM) | MBC ([5]; ≥99.99 % reduction in CFUs): 15 µg/mL (≈ 12.1 µM) | MIC ([6]; ≥90 % reduction in CFUs): 7.8(6.3)/7.8(6.3) μg mL^−1 | MBC ([6]; ≥99.99 % reduction in CFUs): 7.8(6.3)/7.8(6.3) μg mL^−1 | MIC ([7]; ≥90 % reduction in CFUs): 3.9(3.1)/3.9(3.1) μg mL^−1 | MBC ([7]; ≥99.99 % reduction in CFUs): 3.9(3.1)/3.9(3.1) μg mL^−1 | MIC ([8]; ≥90 % reduction in CFUs): 1.9 µg/mL (≈ 1.53 µM) | MBC ([8]; ≥99.99 % reduction in CFUs): 1.95 µg/mL (≈ 1.57 µM) | MIC ([9]; ≥90 % reduction in CFUs): 3.9(3.1)/3.9(3.1) μg mL^−1 | MBC ([9]; ≥99.99 % reduction in CFUs): 3.9(3.1)/3.9(3.1) μg mL^−1 | MIC ([10]; ≥90 % reduction in CFUs): 3.9(3.1)/3.9(3.1) μg mL^−1 | MBC ([10]; ≥99.99 % reduction in CFUs): 3.9(3.1)/3.9(3.1) μg mL^−1 | MIC ([11]; ≥90 % reduction in CFUs): 15(12)/15(12) μg mL^−1 | MBC ([11]; ≥99.99 % reduction in CFUs): 15(12)/15(12) μg mL^−1 | MIC ([12]; ≥90 % reduction in CFUs): 1.9(1.6)/1.9(1.6) μg mL^−1 | MBC ([12]; ≥99.99 % reduction in CFUs): 1.9(1.6)/1.9(1.6) μg mL^−1 | MIC ([13]; ≥90 % reduction in CFUs): 15(12)/15(12) μg mL^−1 | MBC ([13]; ≥99.99 % reduction in CFUs): 15(12)/15(12) μg mL^−1 | MIC ([14]; ≥90 % reduction in CFUs): 15(12)/1512) μg mL^−1 | MBC ([14]; ≥99.99 % reduction in CFUs): 15(12)/1512) μg mL^−1 | MIC ([15]; ≥90 % reduction in CFUs): 15(12)/15(12) μg mL^−1 | MBC ([15]; ≥99.99 % reduction in CFUs): 15(12)/15(12) μg mL^−1 | MIC ([16]; ≥90 % reduction in CFUs): 3.9(3.1)/3.9(3.1) μg mL^−1 | MBC (minimum fungicidal concentration) ([16]; ≥99.99 % reduction in CFUs): 3.9(3.1)/3.9(3.1) μg mL^−1 | Horse HC10 ([17]; concentration causing 10 % lysis of horse red blood cells, PBS, 3 h 37 °C, OD 540 nm): 3 µM | Horse HC50 ([17]; concentration causing 50 % lysis of horse red blood cells, PBS, 3 h 37 °C, OD 540 nm): 110 µM | SR horse blood (ratio HC10 to geometric mean MIC) ([17]; selectivity ratio): 0.6 | TI horse blood (ratio HC50 to geometric mean MIC) ([17]; therapeutic index): 22 | Human HC10 ([18]; concentration causing 10 % lysis of human red blood cells, PBS, 3 h 37 °C, OD 540 nm): 5 µM | Human HC50 ([18]; concentration causing 50 % lysis of human red blood cells, PBS, 3 h 37 °C, OD 540 nm): 225 µM | SR human blood (ratio HC10 to geometric mean MIC) ([18]; selectivity ratio): 1 | TI human blood (ratio HC50 to geometric mean MIC) ([18]; therapeutic index): 45
